In patent US7981912B2, “Indole acetic acids exhibiting CRTH2 receptor antagonism and uses thereof” (Wyeth LLC, priority 2004, dated 2011):

Molecular target: T1, human CRTH2 (Homo sapiens, UniProt Q9Y5Y4)
T1 sequence (Q9Y5Y4 1-395): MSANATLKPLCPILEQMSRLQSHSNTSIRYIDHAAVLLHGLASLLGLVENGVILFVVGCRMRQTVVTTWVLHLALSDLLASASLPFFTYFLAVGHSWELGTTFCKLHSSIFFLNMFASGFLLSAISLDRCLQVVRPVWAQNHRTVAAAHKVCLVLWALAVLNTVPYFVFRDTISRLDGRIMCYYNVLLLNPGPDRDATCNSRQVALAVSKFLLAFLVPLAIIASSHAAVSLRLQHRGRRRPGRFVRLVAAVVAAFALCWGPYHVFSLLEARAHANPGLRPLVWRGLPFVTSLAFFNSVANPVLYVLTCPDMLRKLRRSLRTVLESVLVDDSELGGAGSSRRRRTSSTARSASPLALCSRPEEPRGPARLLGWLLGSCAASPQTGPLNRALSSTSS
Assay: CRTH-2 binding assay (scintillation proximity assay, inhibition of 3H-PGD2 binding)
Set-up: expressed in transfected cells; host or cells: HEK 293EBNA-hCRTH2 (membrane preparation)
Conditions: inhibition of 3H-PGD2 (3.6 nM) binding to HEK 293EBNA-hCRTH2 membranes; Ki calculated from IC50
Description: A CRTH2 binding assay was developed to measure the ability of compounds to inhibit the binding of PGD2 to human CRTH2 using a scintillation proximity assay.
Membranes containing hCRTH2 receptors were prepared from HEK 293EBNA-hCRTH2 cells (a HEK 293EBNA cell line stably expressing human CRTH2). The cells were grown to confluency, harvested and washed with PBS. The cells were resuspended in 10 mM Hepes pH 7.4, 1 mM EDTA and protease inhibitors and incubated for 30 min on ice. The cells were homogenized and centrifuged for 10 min at 1000×g. The supernate was centrifuged for 30 min at 100,000×g and the membrane pellet was then resusupended in 10 mM Hepes pH 7.4 and 1 mM EDTA. The protein concentration of the membrane preparation was determined by Bradford assay (Bio-Rad).
The ability of compounds to inhibit the interaction of PGD2 to human CRTH2 was determined at seven compound concentrations. Compounds were serially diluted in DMSO then diluted into CRTH2 buffer without glycerol (10 mM Hepes pH 7.4, 1 mM EDTA, 10 mM MnCl2) to six times the final desired concentration. 20 μL of the diluted compounds were transferred into non-surface binding 96 well plates (Corning). Each concentration was done in triplicate. In addition to test compounds, each plate contained 12 control wells. Six of these wells contained 20 μL of CRTH2 buffer without glycerol. These wells were used to measure total binding. Six wells contained 20 μL of CRTH2 buffer without glycerol plus 1.5 mM indomethacin. These wells were used to measure non-specific binding. Next, HEK 293EBNA-hCRTH2 membranes were resuspended in CRTH2 buffer with glycerol (10 mM Hepes pH 7.4, 1 mM EDTA, 10 mM MnCl2, 25% glycerol) so that the final concentration was approximately 20 μg protein/100 μL. Polylysine coated yttrium silicate SPA beads (Amershamn) were added to the membrane mix to a concentration of 0.4 mg/100 μL and finally ^3H-PGD2 was added to the membrane/SPA bead mix to 3.6 nM. 100 μL of the membrane/SPA bead/^3H-PGD2 mix was added to each well of the non-surface binding plates containing the diluted compound plus controls. The plates were incubated for 2 hours at room temperature with shaking and then the plates were counted on a Microbeta scintillation counter (Perkin Elmer) for 1 min per well.
IC50 values were determined from the experimental results by nonlinear regression using Prism 4.0 software. The IC50 values were then used in conjunction with the […] for hCRTH2 and the ^3H-PGD2 concentration used in the experiment to calculate the Ki for each compound.

| Structure (SMILES) | Ki [nM] |
| --- | --- |
| O=C(O)Cn1cc(C2c3ccccc3S(=O)(=O)N2Cc2ccc3ccccc3n2)c2ccccc21 (stereo not shown) [Example 30, [3-(1,1-Dioxo-2-quinolin-2-ylmethyl-2,3-dihydro-1H-1λ^6-benzo[d]isothiazol-3-yl)-indol-1-yl]-acetic acid] | < 10000 |
| Cc1c(C2c3ccccc3S(=O)(=O)N2CC(=O)Nc2ccc(F)cc2)c2ccccc2n1CC(=O)O (stereo not shown) [Example 37, (3-{2-[(4-Fluoro-phenylcarbamoyl)-methyl]-1,1-dioxo-2,3-dihydro-1H-1λ^6-benzo[d]isothiazol-3-yl}-2-methyl-indol-1-yl)-acetic acid] | < 10000 |
| Cc1c(C2c3ccccc3S(=O)(=O)N2CCO)c2ccccc2n1CC(=O)O (stereo not shown) [Example 38, {3-[2-(2-Hydroxy-ethyl)-1,1-dioxo-2,3-dihydro-1H-1λ^6-benzo[d]isothiazol-3-yl]-2-methyl-indol-1-yl}-acetic acid] | < 10000 |
| Cc1nc(CN2C(c3c(C)n(CC(=O)O)c4ccccc34)c3ccccc3S2(=O)=O)cs1 (stereo not shown) [Example 42, {2-Methyl-3-[2-(2-methyl-thiazol-4-ylmethyl)-1,1-dioxo-2,3-dihydro-1H-1λ^6benzo[d]isothiazol-3-yl]-indol-1-yl}-acetic acid] | < 1000 |
| Cc1c(C2c3ccccc3S(=O)(=O)N2Cc2cccc(C(F)(F)F)c2)c2ccccc2n1CC(=O)O (stereo not shown) [Example 43, {3-[1,1-Dioxo-2-(3-trifluoromethyl-benzyl)-2,3-dihydro-1H-1λ^6-benzo[d]isothiazol-3-yl]-2-methyl-indol-1-yl}-acetic acid] | < 1000 |
| Cc1c(C2c3ccccc3S(=O)(=O)N2CCC(C)C)c2ccccc2n1CC(=O)O (stereo not shown) [Example 44, {2-Methyl-3-[2-(3-methyl-butyl)-1,1-dioxo-2,3-dihydro-1H-1λ^6-benzo[d]isothiazol-3-yl]-indol-1-yl}-acetic acid] | < 1000 |
| C=CCN1C(c2c(C)n(CC(=O)O)c3ccccc23)c2ccccc2S1(=O)=O (stereo not shown) [Example 45, [3-(2-Allyl-1,1-dioxo-2,3-dihydro-1H-1λ^6-benzo[d]isothiazol-3-yl)-2-methyl-indol-1-yl]-acetic acid] | < 1000 |
| Cc1c(C2c3ccccc3S(=O)(=O)N2CCCOc2ccccc2)c2ccccc2n1CC(=O)O (stereo not shown) [Example 46, {3-[1,1-Dioxo-2-(3-phenoxy-propyl)-2,3-dihydro-1H-1λ^6-benzo[d]isothiazol-3-yl]-2-methyl-indol-1-yl}-acetic acid] | < 1000 |
| Cc1c(C2c3ccccc3S(=O)(=O)N2C(C)C)c2ccccc2n1CC(=O)O (stereo not shown) [Example 47, [3-(2-Isopropyl-1,1-dioxo-2,3-dihydro-1H-1λ^6-benzo[d]isothiazol-3-yl)-2-methyl-indol-1-yl]-acetic acid] | < 1000 |
| Cc1ccc2c(c1)c(C1c3ccccc3S(=O)(=O)N1Cc1nc3ccccc3s1)cn2CC(=O)O (stereo not shown) [Example 48, [3-(2-Benzothiazol-2-ylmethyl-1,1-dioxo-2,3-dihydro-1H-1λ^6-benzo[d]isothiazol-3-yl)-5-methyl-indol-1-yl]-acetic acid] | < 1000 |
| Cc1ccc2c(c1)c(C1c3ccccc3S(=O)(=O)N1Cc1ccc(F)cc1)cn2CC(=O)O (stereo not shown) [Example 49, {3-[2-(4-Fluoro-benzyl)-1,1-dioxo-2,3-dihydro-1H—1λ^6-benzo[d]isothiazol-3-yl]-5-methyl-indol-1-yl}-acetic acid] | < 1000 |
| Cc1ccc2c(c1)c(C1c3ccccc3S(=O)(=O)N1CCCOCc1ccccc1)cn2CC(=O)O (stereo not shown) [Example 50, {3-[2-(3-Benzyloxy-propyl)-1,1-dioxo-2,3-dihydro-1H-1λ^6-benzo[d]isothiazol-3-yl]-5-methyl-indol-1-yl}-acetic acid] | < 10000 |
| Cc1ccc2c(c1)c(C1c3ccccc3S(=O)(=O)N1Cc1cccc(C(F)(F)F)c1)cn2CC(=O)O (stereo not shown) [Example 51, {3-[1,1-Dioxo-2-(3-trifluoromethyl-benzyl)-2,3-dihydro-1H-1λ^6-benzo[d]isothiazol-3-yl]-5-methyl-indol-1-yl}-acetic acid] | < 10000 |
| COCCCN1C(c2cn(CC(=O)O)c3ccc(C)cc23)c2ccccc2S1(=O)=O (stereo not shown) [Example 52, {3-[2-(3-Methoxy-propyl)-1,1-dioxo-2,3-dihydro-1H-1λ^6-benzo[d]isothiazol-3-yl]-5-methyl-indol-1-yl}-acetic acid] | < 10000 |
| Cc1ccc2c(c1)c(C1c3ccccc3S(=O)(=O)N1C(C)C#N)cn2CC(=O)O (stereo not shown) [Example 53, {3-[2-(Cyano-methyl-methyl)-1,1-dioxo-2,3-dihydro-1H-1λ^6-benzo[d]isothiazol-3-yl]-5-methyl-indol-1-yl}-acetic acid] | < 10000 |
| COc1ccc2c(c1)c(C1c3ccccc3S(=O)(=O)N1Cc1ccc(F)cc1)cn2CC(=O)O (stereo not shown) [Example 54, {3-[2-(4-Fluoro-benzyl)-1,1-dioxo-2,3-dihydro-1H-1λ^6-benzo[d]isothiazol-3-yl]-5-methoxy-indol-1-yl}-acetic acid] | < 1000 |

Now from value to compound:

| Ki [nM] | Structure (SMILES) |
| --- | --- |
| < 1000 | O=C(O)Cn1cc(C2c3ccccc3S(=O)(=O)N2Cc2cccc(Oc3ccc(F)cc3)c2)c2ccccc21 (stereo not shown) [Example 31, (3-{2-[3-(4-Fluoro-phenoxy)-benzyl]-1,1-dioxo-2,3-dihydro-1H-1λ^6benzo[d]isothiazol-3-yl}-indol-1-yl)-acetic acid] |
| < 1000 | O=C(O)Cn1cc(C2c3ccccc3S(=O)(=O)N2Cc2ccccc2-c2ccccc2)c2ccccc21 (stereo not shown) [Example 32, [3-(2-Biphenyl-2-ylmethyl-1,1-dioxo-2,3-dihydro-1H-1λ^6-benzo[d]isothiazol-3-yl)-indol-1-yl]-acetic acid] |
| < 1000 | O=C(O)Cn1cc(C2c3ccccc3S(=O)(=O)N2Cc2csc(-c3cccs3)n2)c2ccccc21 (stereo not shown) [Example 33, {3-[1,1-Dioxo-2-(2-thiophen-2-yl-thiazol-4-ylmethyl)-2,3-dihydro-1H-1λ^6-benzo[d]isothiazol-3-yl]-indol-1-yl}-acetic acid] |
| < 1000 | O=C(O)Cn1cc(C2c3ccccc3S(=O)(=O)N2Cc2csc(-c3ccc(Cl)cc3)n2)c2ccccc21 (stereo not shown) [Example 34, (3-{2-[2-(4-Chloro-phenyl)-thiazol-4-ylmethyl]-1,1-dioxo-2,3-dihydro-1H-1λ^6-benzo[d]isothiazol-3-yl}-indol-1-yl)-acetic acid] |
| < 100 | Cc1noc(C)c1CN1C(c2cn(CC(=O)O)c3ccccc23)c2ccccc2S1(=O)=O (stereo not shown) [Example 35, {3-[2-(3,5-Dimethyl-isoxazol-4-ylmethyl)-1,1-dioxo-2,3-dihydro-1H-1λ^6benzo[d]isothiazol-3-yl]-indol-1-yl}-acetic acid] |
| < 100 | Cc1onc(-c2ccccc2)c1CN1C(c2c(C)n(CC(=O)O)c3ccccc23)c2ccccc2S1(=O)=O (stereo not shown) [Example 36, {2-Methyl-3-[2-(5-methyl-3-phenyl-isoxazol-4-ylmethyl)-1,1-dioxo-2,3-dihydro-1H-1λ^6-benzo[d]isothiazol-3-yl]-indol-1-yl}-acetic acid] |
| < 100 | Cc1c(C2c3ccccc3S(=O)(=O)N2CCOc2ccc(Cl)cc2)c2ccccc2n1CC(=O)O (stereo not shown) [Example 39, (3-{2-[2-(4-Chloro-phenoxy)-ethyl]-1,1-dioxo-2,3-dihydro-1H-1λ^6-benzo[d]isothiazol-3-yl}-2-methyl-indol-1-yl)-acetic acid] |
| < 1000 | CCOC(=O)CN1C(c2c(C)n(CC(=O)O)c3ccccc23)c2ccccc2S1(=O)=O (stereo not shown) [Example 40, [3-(2-Ethoxycarbonylmethyl-1,1-dioxo-2,3-dihydro-1H-1λ^6benzo[d]isothiazol-3-yl)-2-methyl-indol-1-yl]-acetic acid] |
| < 1000 | Cc1c(C2c3ccccc3S(=O)(=O)N2CC2COc3ccccc3O2)c2ccccc2n1CC(=O)O (stereo not shown) [Example 41, {3-[2-(2,3-Dihydro-benzo[1,4]dioxin-2-ylmethyl)-1,1-dioxo-2,3-dihydro-1H-1λ^6-benzo[d]isothiazol-3-yl]-2-methyl-indol-1-yl}-acetic acid] |
